We go through 16 molecules from patent US20230158025A1 (UNIVERSITY OF UTAH RESEARCH FOUNDATION, priority 2020, published 2023).

Data set [1] in a line: rat microsomal stability (RLM).
Data set [2] concerns the target recombinant human GALK1 (Homo sapiens, UniProt P51570). Briefly: hGALK1 biochemical activity assay (Kinase-Glo Plus, ATP depletion). On the procedure: In vitro hGALK1 activity assays were performed as previously described. Liu et al., Bioorg. Med. Chem. Lett. 25(3): 721-727 (2015), which is incorporated by reference herein for the specific teachings thereof. The biochemical assay was performed by coupling the activity of recombinant human or mouse GALK1 to the Kinase-Glo Plus luminescent ATP detection kit, using ATP depletion as a measure of GALK1 turnover. Specifically, three μL/well of ATP substrate solution (35 μM ATP) in assay buffer (20 mM HEPES pH 8.0, 5 mM MgCl2, 60 mM NaCl, 1 mM DTT, 0.01% BSA final concentration) was dispensed into 1536-well assay plates (Greiner, white solid-bottom medium-binding plates). Aliquots of compound (23 nL solubilized in DMSO) were transferred to the assay plates using a Kalypsys 1536-well pintool such that 11 concentrations with 1/3 dilutions ranging from 57.4 μM-0.97 nM are tested. One μL/well of GALK-galactose solution (5 nM GALK1, 100 μM galactose) in assay buffer was then added, yielding a final reaction volume of 4 μL/well. Following a 1-hour room temperature incubation, 4 μL of Kinase-Glo Plus detection reagent was added to provide an ATP-dependent luminescent readout (final assay volume: 8 μL/well).
(Kinase-Glo reads ATP consumption through a luciferase reaction.)

Data set [3] is described as follows: aqueous kinetic solubility.
Data set [4] in a line: PAMPA permeability. For orientation: PAMPA measures passive passage across an artificial lipid membrane.
Data set [5] addresses recombinant mouse GALK1 (Mus musculus, UniProt Q9R0N0). Kind of data set: mGALK1 biochemical activity assay (Kinase-Glo Plus, ATP depletion). How it is done: In vitro hGALK1 activity assays were performed as previously described. Liu et al., Bioorg. […] The biochemical assay was performed by coupling the activity of recombinant human or mouse GALK1 to the Kinase-Glo Plus luminescent ATP detection kit, using ATP depletion as a measure of GALK1 turnover. […] One μL/well of GALK-galactose solution (5 nM GALK1, 100 μM galactose) in assay buffer was then added, yielding a final reaction volume of 4 μL/well. Following a 1-hour room temperature incubation, 4 μL of Kinase-Glo Plus detection reagent was added to provide an ATP-dependent luminescent readout (final assay volume: 8 μL/well).

Setting [6] is: recombinant human GALK1, Kinase-Glo Plus ATP depletion, read-out: hGALK.
Where [7] appears, read: Tables 2-15, 35 μM ATP, 100 μM galactose, 1 h, bracketed figure after some values (e.g. −1.2) is undefined and not reported, read-out: hGALK IC50.
[8] abbreviates: recombinant mouse GALK1, Kinase-Glo Plus ATP depletion, read-out: mGALK.
The mark [9] stands for this setting: recombinant human GALK1, Kinase-Glo Plus ATP depletion.
[10] abbreviates: recombinant mouse GALK1, Kinase-Glo Plus ATP depletion.
The mark [11] stands for this setting: microsomal stability half-life, minutes.
Where [12] appears, read: recombinant human GALK1, Kinase-Glo Plus ATP depletion, bracketed figure in the cell, e.g. (−1.2), is not defined in the text shown, read-out: hGALK.
[13] abbreviates: recombinant mouse GALK1, Kinase-Glo Plus ATP depletion, bracketed figure in the cell, e.g. (−1.2), is not defined in the text shown, read-out: mGALK.

Where two headings read alike, the source gives them in different places.

recombinant mouse GALK1, sequence (Q9R0N0 whole entry): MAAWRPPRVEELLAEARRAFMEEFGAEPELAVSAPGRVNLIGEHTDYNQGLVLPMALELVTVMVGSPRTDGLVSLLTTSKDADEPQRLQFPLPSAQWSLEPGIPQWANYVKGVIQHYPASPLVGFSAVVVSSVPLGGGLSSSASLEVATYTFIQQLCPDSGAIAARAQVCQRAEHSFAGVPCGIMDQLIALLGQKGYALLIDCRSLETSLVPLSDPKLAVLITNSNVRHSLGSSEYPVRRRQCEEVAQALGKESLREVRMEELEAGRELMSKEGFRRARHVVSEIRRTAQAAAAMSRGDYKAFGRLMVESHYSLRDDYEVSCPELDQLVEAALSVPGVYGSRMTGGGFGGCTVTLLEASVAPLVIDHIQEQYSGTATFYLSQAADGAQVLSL
recombinant human GALK1, sequence (P51570 whole entry): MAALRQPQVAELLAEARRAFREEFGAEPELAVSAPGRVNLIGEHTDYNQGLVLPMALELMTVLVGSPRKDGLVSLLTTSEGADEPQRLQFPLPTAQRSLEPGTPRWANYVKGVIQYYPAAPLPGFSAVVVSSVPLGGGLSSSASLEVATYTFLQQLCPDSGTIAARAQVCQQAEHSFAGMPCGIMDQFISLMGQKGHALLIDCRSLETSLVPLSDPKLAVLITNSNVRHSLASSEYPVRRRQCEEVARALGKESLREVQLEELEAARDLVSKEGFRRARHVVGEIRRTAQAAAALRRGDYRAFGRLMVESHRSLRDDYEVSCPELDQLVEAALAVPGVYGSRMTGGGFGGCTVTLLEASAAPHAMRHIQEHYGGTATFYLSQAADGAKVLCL

Consider `CC1=C(C(=O)Nc2cc(C(=O)O)ccn2)C(c2ccc(-c3ccccc3)cc2Cl)N=C(Nc2nc3ccc(F)cc3o2)N1` (stereo not drawn) [Compound 65, 2-(4-(3-chloro-[1,1′-biphenyl]-4-yl)-2-((6-fluorobenzo[d]oxazol-2-yl)amino)-6-methyl-1,4-dihydropyrimidine-5-carboxamido)isonicotinic acid], for which the “Metab. Stabil. (m)” value in data set [1] (microsomal half-life) is reported as greater than 30 m. Also, in data set [2] (setting [6]), the IC50 was 3.43 µM. Further, the “Sol.” value in data set [3] was less than 1 µg/mL. For the same molecule, the “Perm. (1 × 10^−6 cm/sec)” value in data set [4] is <4.9 1 × 10^−6 cm/sec.
`CC1=C(C(=O)Nc2cc(C(=O)O)ccn2)C(c2ccc(C(=O)O)cc2Cl)N=C(Nc2nc3ccc(F)cc3o2)N1` (stereo not drawn) [Compound 72, 2-(4-(4-carboxy-2-chlorophenyl)-2-((6-fluorobenzo[d]oxazol-2-yl)amino)-6-methyl-1,4-dihydropyrimidine-5-carboxamido)isonicotinic acid]: in data set [1] (microsomal half-life), the “Metab. Stabil. (m)” value is given as greater than 30 m. Further, the IC50 in data set [2] (setting [7]) and in data set [2] (setting [6]) was 2.17 µM each time. Also, in data set [3], the “Sol.” value was greater than 83 µg/mL. Besides, the “Perm. (1 × 10^−6 cm/sec)” value in data set [4] was <1 1 × 10^−6 cm/sec.
As for `COC(=O)c1ccnc(NC(=O)C2=C(C)NC(Nc3nc4cccc(N)c4o3)=NC2c2ccc(C)cc2Cl)c1` (stereo not drawn) [Compound 91], in data set [1] (microsomal half-life), the “Metab. Stabil. (m)” value was 25.2784 m. Further, the “Sol.” value in data set [3] is less than 1 µg/mL. In addition, the IC50 in data set [5] (setting [8]) stood at 7.08 µM. The “Perm. (1 × 10^−6 cm/sec)” value in data set [4] is 177.1 1 × 10^−6 cm/sec.
Turning to `CC1=C(C(=O)Nc2nnc(-c3cccnc3)s2)C(c2ccccc2Cl)N=C(Nc2nc3cc(N)ccc3o2)N1` (stereo not drawn) [Compound 101, 2-((5-aminobenzo[d]oxazol-2-yl)amino)-4-(2-chlorophenyl)-6-methyl-N-(5-(pyridin-3-yl)-1,3,4-thiadiazol-2-yl)-1,4-dihydropyrimidine-5-carboxamide], the “Metab. Stabil. (m)” value in data set [1] (microsomal half-life) is reported as greater than 30 m. The IC50 in data set [2] (setting [6]) was 10.9 µM. In addition, the “Sol.” value in data set [3] was 1.8 µg/mL. Further, in data set [4], the “Perm. (1 × 10^−6 cm/sec)” value is 4.4 1 × 10^−6 cm/sec.
`CC1=C(C(=O)Nc2cc(C(=O)O)ccn2)C(c2ccc(C)cc2Cl)N=C(Nc2ncc(-c3ccccc3)o2)N1` (stereo not drawn) [Compound 103, 2-(4-(2-chloro-4-methylphenyl)-6-methyl-2-((5-phenyloxazol-2-yl)amino)-1,4-dihydropyrimidine-5-carboxamido)isonicotinic acid]: in data set [1] (microsomal half-life), the “Metab. Stabil. (m)” value is on record as greater than 30 m. Also, the IC50 in data set [2] (setting [7]) and in data set [2] (setting [6]) was 24.3 µM in each case. For the same molecule, the “Sol.” value in data set [3] came to 42.2 µg/mL. In addition, the “Perm. (1 × 10^−6 cm/sec)” value in data set [4] was 4.14 1 × 10^−6 cm/sec.
Turning to `CCn1cc(CNC(=O)C2=C(C)NC(Nc3nc4ccc(F)c(N)c4o3)=N[C@H]2c2ccc(C)cc2Cl)cn1` [Compound 135, (R)-2-((7-amino-6-fluorobenzo[d]oxazol-2-yl)amino)-4-(2-chloro-4-methylphenyl)-N-((1-ethyl-1H-pyrazol-4-yl)methyl)-6-methyl-1,4-dihydropyrimidine-5-carboxamide], the IC50 in data set [2] (setting [6]) was determined as 0.07 µM; in data set [5] (setting [8]), 0.97 µM. The “Sol.” value in data set [3] (aqueous kinetic solubility) is 2.05 µg/mL. In data set [4] (PAMPA), the “Perm. (1 × 10^−6 cm/sec)” value is on record as 407.39 1 × 10^−6 cm/sec.
Turning to `COC(=O)c1ccc(NC(=O)C2=C(C)NC(Nc3nc4ccccc4o3)=NC2c2ccccc2Cl)cc1` (stereo not drawn) [Compound 138], in data set [1] (microsomal stability half-life), the “Metab. Stabil. (m)” value was found to be 17.7182 m. For the same molecule, in data set [3] (aqueous kinetic solubility), the “Sol.” value is less than 1 µg/mL. Moreover, the IC50 was found to be 9.68 µM in data set [5] (Tables 2-15, 35 μM ATP, 100 μM galactose, 1 h, bracketed figure after some values is undefined and not reported, read-out: mGALK IC50); 9.68 µM in data set [5] (setting [8]). Moreover, in data set [4] (PAMPA), the “Perm. (1 × 10^−6 cm/sec)” value was 25.4 1 × 10^−6 cm/sec.
On to `CC1=C(C(=O)NCc2cn(C)cn2)[C@@H](c2ccccc2Cl)N=C(Nc2nc3ccccc3o2)N1` [Compound 236, (S)-2-(benzo[d]oxazol-2-ylamino)-4-(2-chlorophenyl)-6-methyl-N-((1-methyl-1H-imidazol-4-yl)methyl)-1,4-dihydropyrimidine-5-carboxamide], for which the “Metab. Stabil. (m)” value in data set [1] (microsomal stability half-life) turned out to be 8.726 m. The “hGALK IC50” value in data set [2] (Tables 2-15, 35 μM ATP, 100 μM galactose, 1 h, bracketed figure after some values (e.g. −1.2) is undefined and not reported) was “inactive”. In addition, in data set [2] (setting [9]), the “hGALK (μM)” value is given as “in- active”. The “Sol.” value in data set [3] (aqueous kinetic solubility) was found to be 40.5 µg/mL. Moreover, in data set [5] (Tables 2-15, 35 μM ATP, 100 μM galactose, 1 h, bracketed figure after some values is undefined and not reported), the “mGALK IC50” value is “inactive”. Besides, the “mGALK (μM)” value in data set [5] (setting [10]) was “in- active”.
Consider `CCOC(=O)C1=C(C)NC(Nc2nc3ccccc3o2)=NC1c1ccccc1Cl` (stereo not drawn) [Compound 239, ethyl 2-(benzo[d]oxazol-2-ylamino)-4-(2-chlorophenyl)-6-methyl-1,4-dihydropyrimidine-5-carboxylate], for which the “Metab. Stabil. (m)” value in data set [1] (microsomal stability half-life) was determined as 19.30 m. Further, the “hGALK (μM)” value in data set [2] (setting [9]) is “in- active”. For the same molecule, the “Sol.” value in data set [3] (aqueous kinetic solubility) was less than 1 µg/mL. The IC50 in data set [5] (setting [8]) is 13.7 µM.
For `CCOC(=O)C1=C(C(C)C)NC(Nc2nc3ccccc3o2)=NC1c1ccccc1Cl` (stereo not drawn) [Compound 240, ethyl 2-(benzo[d]oxazol-2-ylamino)-4-(2-chlorophenyl)-6-isopropyl-1,4-dihydropyrimidine-5-carboxylate], in data set [1] (microsomal stability half-life), the “Metab. Stabil. (m)” value is on record as 57.5 m. In data set [2] (setting [9]), the “hGALK (μM)” value is “in- active”. Also, the “Sol.” value in data set [3] (aqueous kinetic solubility) is less than 1 µg/mL. Further, the “mGALK (μM)” value in data set [5] (setting [10]) is “in- active”.
For the molecule `COC(=O)C1=C(C(F)(F)F)NC(Nc2nc3ccccc3o2)=NC1c1ccccc1Cl` (stereo not drawn) [Compound 241, methyl 2-(benzo[d]oxazol-2-ylamino)-4-(2-chlorophenyl)-6-(trifluoromethyl)-1,4-dihydropyrimidine-5-carboxylate], the “Metab. Stabil. (m)” value in data set [1] (microsomal stability half-life) came to 10.46 m. Also, the “hGALK (μM)” value in data set [2] (setting [9]) was “in- active”. In data set [3] (aqueous kinetic solubility), the “Sol.” value is 2.65 µg/mL. Further, in data set [5] (setting [10]), the “mGALK (μM)” value is “in- active”.
Consider `O=C1NCCC2=C1C(c1ccccc1Cl)N=C(Nc1nc3ccccc3o1)N2` (stereo not drawn) [Compound 245, 2-(benzo[d]oxazol-2-ylamino)-4-(2-chlorophenyl)-4,6,7,8-tetrahydropyrido[4,3-d]pyrimidin-5(1H)-one], for which the “Metab. Stabil. (m)” value in data set [1] (setting [11]) was 27.12 m. Further, the values for the IC50 in data set [2] (setting [12]) and in data set [5] (setting [13]) were 17.2 µM and 21.7 µM, respectively. The “Sol.” value in data set [3] (aqueous kinetic solubility) is less than 1 µg/mL.
`COCC1=C(C(=O)Nc2nncs2)C(c2ccccc2Cl)N=C(Nc2nc3ccccc3o2)N1` (stereo not drawn) [Compound 247]: the “Metab. Stabil. (m)” value in data set [1] (setting [11]) was greater than 30 m. Further, in data set [3] (aqueous kinetic solubility), the “Sol.” value was less than 1 µg/mL. Moreover, the IC50 in data set [5] (setting [13]) turned out to be 19.3 µM. Moreover, the “Perm. (1 × 10^−6 cm/sec)” value in data set [4] (PAMPA) was 319.8 1 × 10^−6 cm/sec.
As to `CC1=C(C(=O)Nc2cc(C(=O)O)ccn2)C(c2ccccc2Cl)N=C(Nc2nc3ccccc3o2)N1CC(=O)O` (stereo not drawn) [Compound 272], in data set [1] (setting [11]), the “Metab. Stabil. (m)” value is reported as greater than 30 m. In addition, the IC50 amounted to 3.43 µM in data set [2] (read-out: hGALK) and 13.7 µM in data set [5] (setting [13]). In addition, the “Sol.” value in data set [3] (aqueous kinetic solubility) is greater than 83 µg/mL.
For the molecule `CC1=C(C(=O)Nc2cc(C(=O)O)ccn2)C(c2ccccc2Cl)N=C(Nc2nc3ccccc3o2)N1C` (stereo not drawn) [Compound 273, 2-(2-(benzo[d]oxazol-2-ylamino)-4-(2-chlorophenyl)-1,6-dimethyl-1,4-dihydropyrimidine-5-carboxamido)isonicotinic acid], the “Metab. Stabil. (m)” value in data set [1] (setting [11]) is greater than 30 m. The IC50 came out at 21.7 µM in data set [2] (setting [12]) and 34.3 µM in data set [5] (setting [13]). For the same molecule, the “Sol.” value in data set [3] (aqueous kinetic solubility) was greater than 76 µg/mL.
As for `CN(C)C(=O)C1CC(=O)C2=C(C1)NC(Nc1nc3ccccc3o1)=NC2c1ccccc1Cl` (stereo not drawn) [Compound 277, 2-(benzo[d]oxazol-2-ylamino)-4-(2-chlorophenyl)-N,N-dimethyl-5-oxo-1,4,5,6,7,8-hexahydroquinazoline-7-carboxamide], the “Metab. Stabil. (m)” value in data set [1] (setting [11]) amounted to 20.79 m. Further, in data set [3] (aqueous kinetic solubility), the “Sol.” value was 10.84 µg/mL. In addition, in data set [5] (setting [13]), the IC50 worked out at 4.32 µM. In data set [4] (PAMPA), the “Perm. (1 × 10^−6 cm/sec)” value was 219.68 1 × 10^−6 cm/sec.
